Consider two compounds from paper PMC10821046, “Harmaline to Human Mitochondrial Caseinolytic Serine Protease Activation for Pediatric Diffuse Intrinsic Pontine Glioma Treatment” (Pharmaceuticals, 2024).

The target in one data set is T1, hClpP (Homo sapiens, UniProt Q16740).
T1 construct: made in house; host or cells: E. coli BL21-CodonPlus (DE3)-RIL
The data set can be described thus: FITC-casein hClpP activity test. Format: biochemical. The settings on record: 100 µM, normalized to 100 µM ONC201 activity. The protocol: To assess the potency of the proteolytic activity of hClpP, a FITC–casein assay was performed. In a black, flat-bottom, 96-well plate, a 3 μM solution of purified hClpP in assay buffer (50 mM of HEPES, pH 7.5, 300 mM of KCl, 1 mM of DTT, 15% v/v glycerol; AB) preincubated at 37 °C for 15 min was added to 5 μL of the tested compounds in DMSO at different concentrations (ranging from 1 to 100 μM) and incubated for 15 min at 37 °C under shaking. As a control, three wells were filled with 5 µL of DMSO. The kinetic measurement was started after adding 2 µM of the fluorogenic peptides FITC and casein (Merck, C3777), used as hydrolytic substrates. The fluorescence of the cleaved FITC was recorded over 60 min at 37 °C on a Tecan Infinite M200 Pro (λex: 485 nm, emission λem: 535 nm, gain: 60). The slope in the linear range between 600 and 1800 s was determined and plotted against time. The EC50 for each tested compound was calculated using GraphPad Prism 7.05. Results are reported as the mean of two independent experiments performed in triplicate.

The next data set relates to SU-DIPG-36 cells. The experiment in a line: 2D cell viability assay (CCK8). Format: cell-based, human. The settings on record: SU-DIPG-36, 100 µM, 72 h exposure. The protocol: (§1) Patient-derived diffuse intrinsic pontine glioma cell cultures (SU-DIPG-36, SU-DIPG-50) were provided by Dr Michelle Monje (Institutional Review Board (Stanford University) approval). The cells were cultured as a monolayer in media that was changed once a week at 37 °C in 5% CO2 by using Tumor Stem Media composed by: a 1:1 ratio of DMEM/F12 (Invitrogen)/Neurobasal (-A) (Invitrogen), B27 (-A) (Life Technologies, Milan, Italy), 20 ng/mL of human basic fibroblast growth factor (Life Technologies), 20 ng/mL of recombinant human epidermal growth factor (Life Technologies), 10 ng/mL of platelet-derived growth factor-AA, 10 ng/mL of platelet-derived growth factor-BB (Life Technologies), and 20 ng/mL of heparin (StemCell Technologies, Milan, Italy).
(§2) Then, 1 × 10^4 SU-DIPG-36 or SU-DIPG-50 cells/well in 100 µL of culture medium were seeded into 96-well plates and incubated O/N at 37 °C in CO2 (5%). […] Control wells with DMSO were used to evaluate the possible cytotoxicity of the solvent. […] Then, the absorbance was red (λ = 450 nm) with Tecan Infinite 200. GraphPad Prism allowed for the determination of IC50.

Another data set concerns SU-DIPG-50 cells. The data set can be described thus: 2D cell viability assay (CCK8). Format: cell-based, human. The settings on record: SU-DIPG-50, 100 µM, 72 h exposure. The method, then: as §1, §2
The next data set deals with SH-SY-5Y spheroids. The data set can be described thus: 3D cell viability assay (CellTiter-Glo 3D, ATP). Format: cell-based, human. The settings on record: 72 h; for viability at 100 µM: Homo sapiens, SH-SY5Y, ATP assay, mean ± SEM; for decrease in cell viability: SH-SY-5Y spheroids, highest concentration (100 µM).
Another data set relates to SK-N-AS spheroids. The experiment in a line: 3D cell viability assay (CellTiter-Glo 3D, ATP). The settings on record: 72 h; for viability at 100 µM: Homo sapiens, SK-N-AS, ATP assay, mean ± SEM; for decrease in cell viability: SK-N-AS spheroids, highest concentration (100 µM). Format: cell-based, human.
In another data set the target is T2, P-gp (Homo sapiens, UniProt P08183).
T2 construct: expressed in transfected cells; host or cells: MDCK-MDR1
T2 sequence (P08183 whole entry): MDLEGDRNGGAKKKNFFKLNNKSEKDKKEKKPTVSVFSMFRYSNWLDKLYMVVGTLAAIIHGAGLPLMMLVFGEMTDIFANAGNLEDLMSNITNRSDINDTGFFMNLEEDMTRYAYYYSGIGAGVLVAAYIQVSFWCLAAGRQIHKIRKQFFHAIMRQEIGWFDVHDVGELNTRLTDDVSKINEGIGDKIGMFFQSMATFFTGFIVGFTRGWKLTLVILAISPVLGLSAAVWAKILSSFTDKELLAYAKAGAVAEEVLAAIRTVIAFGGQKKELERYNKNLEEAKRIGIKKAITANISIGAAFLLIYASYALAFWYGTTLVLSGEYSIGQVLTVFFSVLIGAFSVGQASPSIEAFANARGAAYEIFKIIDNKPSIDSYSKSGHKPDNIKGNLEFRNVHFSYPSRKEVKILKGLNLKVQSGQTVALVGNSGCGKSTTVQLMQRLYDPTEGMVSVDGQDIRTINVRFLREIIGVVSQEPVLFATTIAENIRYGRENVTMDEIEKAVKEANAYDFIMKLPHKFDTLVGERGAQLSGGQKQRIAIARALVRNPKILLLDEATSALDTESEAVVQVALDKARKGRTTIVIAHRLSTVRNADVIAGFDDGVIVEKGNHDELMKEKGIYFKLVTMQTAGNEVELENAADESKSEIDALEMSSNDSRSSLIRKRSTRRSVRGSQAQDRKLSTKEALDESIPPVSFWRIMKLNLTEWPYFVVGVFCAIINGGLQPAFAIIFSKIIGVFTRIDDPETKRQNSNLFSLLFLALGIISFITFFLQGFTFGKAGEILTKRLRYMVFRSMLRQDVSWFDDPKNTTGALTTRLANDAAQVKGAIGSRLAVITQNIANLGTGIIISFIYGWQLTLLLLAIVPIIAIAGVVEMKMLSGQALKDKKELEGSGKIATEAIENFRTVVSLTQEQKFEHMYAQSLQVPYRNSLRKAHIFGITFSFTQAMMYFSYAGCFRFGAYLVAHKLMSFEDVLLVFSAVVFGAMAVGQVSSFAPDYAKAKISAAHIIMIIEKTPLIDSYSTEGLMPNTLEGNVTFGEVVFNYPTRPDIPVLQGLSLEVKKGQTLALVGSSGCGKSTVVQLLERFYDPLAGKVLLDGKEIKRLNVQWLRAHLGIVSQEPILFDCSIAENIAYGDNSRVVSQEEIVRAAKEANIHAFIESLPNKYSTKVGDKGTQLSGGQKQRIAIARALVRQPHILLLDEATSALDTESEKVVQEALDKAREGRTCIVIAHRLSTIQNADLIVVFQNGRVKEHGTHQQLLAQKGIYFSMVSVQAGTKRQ
The experiment in a line: Calcein-AM experiment in MDCK-MDR1 cells. Format: cell-based. The protocol: Here, 3 × 10^4 MDCK-MDR1 cells/well were seeded (100 µL) in a black 96-well culture plate and incubated in CO2 (5%) at 37 °C O/N. The compounds to be tested were added at different concentrations (0.1–100 µM) in 100 µL of culture medium and then incubated for 30 min. […] The fluorescence of the wells containing the tested compounds was compared with that of those containing the untreated cells. The percentage of fluorescence as a function of log[dose] allowed the EC50 values to be determined.

Data set [1] is described as follows: Drug transport experiments, Caco-2 monolayer. The settings on record: human, 1 × 10^−4 M. Format: in vitro ADME. The text has this:
The experiment started with the preparation of the Caco-2 monolayer, which occurred by seeding the cells (20,000/well) in Millicell plates (Millipore, Milan, Italy). Its growth was followed for 21 days by changing the medium occasionally and measuring its transepithelial electrical resistance (TEER) daily using an epithelial voltohmmeter (Millicell-ERS) until at least […] was reached.
After 21 days, the plate was washed twice with Hank’s balanced salt solution (HBSS) (Invitrogen). After the second wash, the wells were filled with buffer, and the plate was kept at 37 °C for 30 min. After the incubation time, the HBSS buffer was replaced with the solutions of the compounds to be tested at a concentration of 1 × 10^−4 M. The plates were placed in an incubator at 37 °C for 120 min. The apparent permeability (Papp), in units of nm s^−1, was calculated.

For a further data set, the target named is T3, BCRP (Homo sapiens, UniProt Q9UNQ0).
T3 construct: expressed in transfected cells; host or cells: MDCK-BCRP
T3 sequence (Q9UNQ0 1-655): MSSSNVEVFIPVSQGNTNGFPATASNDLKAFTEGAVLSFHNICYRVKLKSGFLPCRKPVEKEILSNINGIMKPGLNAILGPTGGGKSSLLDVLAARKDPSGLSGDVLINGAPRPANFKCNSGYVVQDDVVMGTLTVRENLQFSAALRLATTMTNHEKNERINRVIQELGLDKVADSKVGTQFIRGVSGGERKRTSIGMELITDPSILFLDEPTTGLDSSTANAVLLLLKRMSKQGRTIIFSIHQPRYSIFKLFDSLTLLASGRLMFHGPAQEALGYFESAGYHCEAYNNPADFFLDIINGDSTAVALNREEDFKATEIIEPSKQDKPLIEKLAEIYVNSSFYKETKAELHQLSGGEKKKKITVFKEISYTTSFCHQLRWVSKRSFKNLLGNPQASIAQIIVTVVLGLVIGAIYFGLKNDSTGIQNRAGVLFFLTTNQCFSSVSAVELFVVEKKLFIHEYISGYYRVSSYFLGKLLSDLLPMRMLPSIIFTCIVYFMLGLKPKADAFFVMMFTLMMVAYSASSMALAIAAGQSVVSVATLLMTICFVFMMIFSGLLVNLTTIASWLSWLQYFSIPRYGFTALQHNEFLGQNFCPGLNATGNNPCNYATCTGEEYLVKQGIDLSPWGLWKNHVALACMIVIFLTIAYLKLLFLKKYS
The data set can be described thus: Hoechst 33342 experiment in MDCK-BCRP cells. Format: cell-based. The settings on record: Hoechst 33342, MDCK-BCRP cells.

T1 sequence (Q16740 with tags, fused parts or gaps): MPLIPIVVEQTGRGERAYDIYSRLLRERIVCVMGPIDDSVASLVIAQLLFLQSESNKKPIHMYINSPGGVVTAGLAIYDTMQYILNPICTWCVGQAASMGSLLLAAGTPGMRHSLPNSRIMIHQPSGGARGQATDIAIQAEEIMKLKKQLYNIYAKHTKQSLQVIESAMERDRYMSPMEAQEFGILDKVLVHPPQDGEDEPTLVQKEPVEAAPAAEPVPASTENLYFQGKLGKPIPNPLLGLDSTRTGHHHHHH
Method for BCRP: Firstly, 3 × 10^4 MDCK-BCRP cells/well were seeded (100 µL) in a 96-well black culture plate and brought to O/N confluence in a 5% CO2 incubator at 37 °C. Different concentrations (0.1–100 µM) of the compounds in the culture medium (100 µL) to be tested were added, and the plate was incubated for 30 min. […] The supernatant was aspirated, and the cells were fixed for 20 min with 4% PFA (100 µL), protecting them from light. Three washes with ice-cold PBS and three washes with saline buffer followed, and then the plate was analyzed (λex 350 nm and λem 460 nm) by Victor3 (PerkinElmer). EC50 values were calculated from the percentage increase in fluorescence compared to log[dose].

As to `COc1ccc2c3c([nH]c2c1)C(C)=NCC3` [Harmaline, 7-methoxy-1-methyl-4,9-dihydro-3H-pyrido[3,4-b]indole], on hClpP, the “activation of hClpP” value came to 28%. For the same compound, the results for the “cancer cell death (cytotoxic effect)” value in the data set on SU-DIPG-36 cells and with SU-DIPG-50 cells were 34% and 50%, respectively. The viability at 100 µM in the data set with SH-SY-5Y spheroids came out at 67.5 ± 13.9%; in the data set with SK-N-AS spheroids it was 44.2 ± 24.2%. Besides, the “decrease in cell viability” value in the data set on SH-SY-5Y spheroids is given as ~ 32.5%; in the data set with SK-N-AS spheroids, ~ 56%. Also, the EC50 was greater than 100 µM on P-gp and 14.9 µM on BCRP. Besides, the Papp A→B at 120 min in data set [1] (Caco-2, apical-basolateral) was determined as 49.6 ×10⁻⁶ cm/s. This compound also yielded a Papp B→A at 120 min in data set [1] (Caco-2, basolateral-apical) of 254 ×10⁻⁶ cm/s.

Take `Cc1ccccc1CN1C(=O)C2=C(CCN(Cc3ccccc3)C2)N2CCN=C12` [ONC201, reference compound]: the “cancer cell death (cytotoxic effect)” value with SU-DIPG-36 cells turned out to be 83%; in the data set on SU-DIPG-50 cells, 70%. The figures for the viability at 100 µM with SH-SY-5Y spheroids and in the data set on SK-N-AS spheroids were 13.7 ± 6.23% and 17.5 ± 6.8%, respectively. Moreover, the “decrease in cell viability” value in the data set on SH-SY-5Y spheroids and in the data set on SK-N-AS spheroids was ~ 85% in each case. Also, the EC50 at P-gp was 13.4 µM.
